Reference: patent publication US9266869B2, “Substituted dialkyl(oxido)-lambda4-sulfanylidene nicotinamide derivatives as kinase inhibitors” (Allergan, Inc., priority 2013, dated 2016)

Assays:
[1] = molecular target: VEGFR2 (KDR) (Homo sapiens (Human), UniProt P35968); assay: VEGFR2 Kinase Assay; assay type: biochemical; details: purified cytoplasmic domain KDR protein, 2.7 μM ATP; read-out: VEGFR2 Enzyme Assay (IC50 nM)
Description: VEGFR2 Kinase Assay Biochemical KDR kinase assays were performed in 96 well microtiter plates that were coated overnight with 75 μg/well of poly-Glu-[…]:1) in 10 mM Phosphate Buffered Saline (PBS), pH 7.4. […] Reactions were carried out in 100 μL reaction volumes containing 2.7 μM ATP in kinase buffer (50 mM Hepes buffer pH 7.4, 20 mM MgCl2, 0.1 mM MnCl2 and 0.2 mM Na3VO4). […] Reactions were initiated by the addition 20 ul per well of kinase buffer containing 200-300 ng purified cytoplasmic domain KDR protein (BPS Bioscience, San Diego, Calif.). Following a 15 minute incubation at 30° C., the reactions were washed 2 mls per well PBS-T. 100 μl of a monoclonal anti-phosphotyrosine antibody-peroxidase conjugate diluted 1:10,000 in PBS-T was added to the wells for 30 minutes. Following a 2 mls per well wash with PBS-Tween-20, 100 μl of 0-Phenylenediamine Dihydrochloride in phosphate-citrate buffer, containing urea hydrogen peroxide, was added to the wells for 7-10 minutes as a colorimetric substrate for the peroxidase. […] IC50 values for compound inhibition were calculated directly from graphs of optical density (arbitrary units) versus compound concentration following subtraction of blank values.

[2] = molecular target: PDGFRβ (Homo sapiens (Human), UniProt P09619); assay: PDGFRβ Kinase Assay; assay type: biochemical; details: purified cytoplasmic domain PDGFR-b protein, 36 μM ATP; read-out: PDGFRβ Enzyme Assay (IC50 nM)
Description: Biochemical PDGFRβ kinase assays were performed in 96 well microtiter plates that were coated overnight with 75 μg of poly-Glu-Tyr (4:1) in 10 mM Phosphate Buffered Saline (PBS), pH 7.4.
PBS-T prior to starting the reaction. Reactions were carried out in 100 μL reaction volumes containing 36 μM ATP in kinase buffer (50 mM Hepes buffer pH 7.4, 20 mM MgCl2, 0.1 mM MnCl2 and 0.2 mM Na3VO4). […] Reactions were initiated by the addition 20 ul per well of kinase buffer containing 200-300 ng purified cytoplasmic domain PDGFR-b protein (Millipore). Following a 60 minute incubation at 30° C., the reactions were washed 2 mls per well PBS-T. 100 μl of a monoclonal anti-phosphotyrosine antibody-peroxidase conjugate diluted 1:10,000 in PBS-T was added to the wells for 30 minutes. Following a 2 mls per well wash with PBS-Tween-20, 100 μl of O-Phenylenediamine Dihydrochloride in phosphate-citrate buffer, containing urea hydrogen peroxide, was added to the wells for 7-10 minutes as a colorimetric substrate for the peroxidase. […] IC50 values for compound inhibition were calculated directly from graphs of optical density (arbitrary units) versus compound concentration following subtraction of blank values.

Chain of PDGFRβ (P09619 554-1106): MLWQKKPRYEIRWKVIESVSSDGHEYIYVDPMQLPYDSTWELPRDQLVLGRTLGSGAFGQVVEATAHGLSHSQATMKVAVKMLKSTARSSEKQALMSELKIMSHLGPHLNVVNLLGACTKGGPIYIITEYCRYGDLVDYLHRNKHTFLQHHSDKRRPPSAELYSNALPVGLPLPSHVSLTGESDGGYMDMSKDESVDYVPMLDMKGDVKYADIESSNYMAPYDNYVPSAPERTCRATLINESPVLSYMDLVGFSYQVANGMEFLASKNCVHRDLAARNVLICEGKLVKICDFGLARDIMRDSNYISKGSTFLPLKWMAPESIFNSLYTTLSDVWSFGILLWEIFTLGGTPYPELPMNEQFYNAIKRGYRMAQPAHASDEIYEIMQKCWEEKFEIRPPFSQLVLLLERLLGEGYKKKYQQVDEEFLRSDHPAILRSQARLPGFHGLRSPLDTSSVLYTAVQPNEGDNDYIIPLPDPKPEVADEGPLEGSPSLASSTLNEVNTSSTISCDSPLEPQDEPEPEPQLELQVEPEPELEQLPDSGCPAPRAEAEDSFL
Chain of VEGFR2 (KDR) (P35968 786-1356): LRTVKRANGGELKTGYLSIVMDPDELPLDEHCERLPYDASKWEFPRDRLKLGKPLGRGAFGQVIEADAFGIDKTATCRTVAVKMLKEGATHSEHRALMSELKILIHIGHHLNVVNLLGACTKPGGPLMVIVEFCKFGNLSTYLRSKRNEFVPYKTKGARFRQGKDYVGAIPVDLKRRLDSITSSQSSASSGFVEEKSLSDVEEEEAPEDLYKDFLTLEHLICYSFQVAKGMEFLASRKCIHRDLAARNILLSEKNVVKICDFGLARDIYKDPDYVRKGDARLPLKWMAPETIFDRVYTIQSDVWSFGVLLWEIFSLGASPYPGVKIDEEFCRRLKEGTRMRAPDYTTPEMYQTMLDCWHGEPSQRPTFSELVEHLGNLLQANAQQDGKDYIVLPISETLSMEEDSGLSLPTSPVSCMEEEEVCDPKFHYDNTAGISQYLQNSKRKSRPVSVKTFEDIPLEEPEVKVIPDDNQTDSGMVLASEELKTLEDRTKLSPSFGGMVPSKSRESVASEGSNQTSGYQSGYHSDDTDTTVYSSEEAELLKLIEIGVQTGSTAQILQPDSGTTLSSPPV

Molecule | IC50 [1] | IC50 [2]
6-Amino-N-[(3-hydroxypropyl)(methyl)oxido-λ^4-sulfanylidene]-5-({3-[(3-methyl-2-furoyl)amino]phenyl}ethynyl)nicotinamide [Example 42] | 5 nM | 13 nM
Cc1ccoc1C(=O)Nc1cccc(C#Cc2cncc(C(=O)N=S(=O)(CCCO)CCCO)c2)c1 [Example 14, N-[Bis(3-hydroxypropyl)(oxido)-λ^4-sulfanylidene]-5-({3-[(3-methyl-2-furoyl)amino]phenyl}ethynyl)nicotinamide] | 5 nM | 26 nM
Cc1ccoc1C(=O)Nc1cccc(C#Cc2cc(C(=O)N=S(=O)(CCCO)CCCO)cnc2N)c1 [Example 15, 6-amino-N-[bis(3-hydroxypropyl)(oxido)-λ^4-sulfanylidene]-5-({3-[(3-methyl-2-furoyl)amino]phenyl}ethynyl)nicotinamide] | 3 nM | 16 nM
O=C(N=S(=O)(CCCO)CCCO)c1cncc(C#Cc2cccc(NC(=O)c3ccc(Cl)c(C(F)(F)F)c3)c2)c1 [Example 16, N-[Bis(3-hydroxypropyl)(oxido)-λ^4-sulfanylidene]-5-[(3-{[4-chloro-3-(trifluoromethyl)benzoyl]amino}phenyl)ethynyl]nicotinamide] | 3 nM | 
Cc1cccc(C(=O)Nc2cccc(C#Cc3cncc(C(=O)N=S(=O)(CCCO)CCCO)c3)c2)c1 [Example 17, N-[Bis(3-hydroxypropyl)(oxido)-λ^4-sulfanylidene]-5-({3-[(3-methylbenzoyl)amino]phenyl}ethynyl)nicotinamide] | 3 nM | 6 nM
O=C(N=S(=O)(CCCO)CCCO)c1cncc(C#Cc2cccc(NC(=O)c3cccc(C(F)(F)F)c3)c2)c1 [Example 18, N-[Bis(3-hydroxypropyl)(oxido)-λ^4-sulfanylidene]-5-[(3-{[3-(trifluoromethyl)benzoyl]amino}phenyl)ethynyl]nicotinamide] | 4 nM | 
O=C(N=S(=O)(CCCO)CCCO)c1cncc(C#Cc2cccc(NC(=O)c3ccc(F)c(Cl)c3)c2)c1 [Example 19, N-[Bis(3-hydroxypropyl)(oxido)-λ^4-sulfanylidene]-5-({3-[(3-chloro-4-fluorobenzoyl)amino]phenyl}ethynyl)nicotinamide] | 5 nM | 
Cc1ccc(F)c(C(=O)Nc2cccc(C#Cc3cncc(C(=O)N=S(=O)(CCCO)CCCO)c3)c2)c1 [Example 20, N-[Bis(3-hydroxypropyl)(oxido)-λ^4-sulfanylidene]-5-({3-[(2-fluoro-5-methylbenzoyl)amino]phenyl}ethynyl)nicotinamide] | 9 nM | 
COc1cccc(C(=O)Nc2cccc(C#Cc3cc(C(=O)N=S(=O)(CCCO)CCCO)cnc3N)c2)c1 [Example 21, 6-Amino-N-[bis(3-hydroxypropyl)(oxido)-λ^4-sulfanylidene]-5-({3-[(3-methoxybenzoyl)amino]phenyl}ethynyl)nicotinamide] | 5 nM | 
Cc1cccc(NC(=O)c2cccc(C#Cc3cc(C(=O)N=S(=O)(CCCO)CCCO)cnc3N)c2)c1 [Example 22, 6-Amino-N-[bis(3-hydroxypropyl)(oxido)-λ^4-sulfanylidene]-5-[(3-{[(3-methylphenyl)amino]carbonyl}phenyl)ethynyl]nicotinamide] | 3 nM | 8 nM
